Experimental findings from patent US20090306093A1, “METHOD FOR TREATING PATIENT HAVING BENIGN PROSTATE HYPERPLASIA” (KAOHSIUNG MEDICAL UNIVERSITY, priority 2008, published 2009) are described below.

The target in this experiment is T1, a1B-adrenoceptor (Rattus norvegicus, UniProt P15823).
T1 construct: The submaxillary glands, spleen, and aorta of rats were separately homogenized; from tissue; host or cells: Wistar rat spleen membranes
T1 sequence (P15823 1-515): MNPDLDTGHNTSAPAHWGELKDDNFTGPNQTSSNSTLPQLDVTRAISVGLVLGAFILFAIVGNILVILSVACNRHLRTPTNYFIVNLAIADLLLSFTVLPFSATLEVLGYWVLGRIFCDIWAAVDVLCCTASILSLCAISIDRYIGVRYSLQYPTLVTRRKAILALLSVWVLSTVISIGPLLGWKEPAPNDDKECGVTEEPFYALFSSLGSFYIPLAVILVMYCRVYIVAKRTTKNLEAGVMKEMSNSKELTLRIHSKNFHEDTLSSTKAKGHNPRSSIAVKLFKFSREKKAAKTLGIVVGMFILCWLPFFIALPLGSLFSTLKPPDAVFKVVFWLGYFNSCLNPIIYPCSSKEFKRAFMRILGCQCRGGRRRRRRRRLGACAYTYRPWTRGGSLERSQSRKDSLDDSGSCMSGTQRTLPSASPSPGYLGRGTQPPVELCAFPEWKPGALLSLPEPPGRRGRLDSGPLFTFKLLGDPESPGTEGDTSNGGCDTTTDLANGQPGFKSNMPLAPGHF
In words: [3H]-prazosin competition binding, rat spleen membranes. Conditions: read-out: Receptor Affinity (pKi) a1B (converted). The protocol: Wistar rats were obtained from National Laboratory Animal Breeding and Research Center (Taipei, Taiwan) and housed under a constant temperature and controlled illumination. The submaxillary glands, spleen, and aorta of rats were separately homogenized for 30 seconds with a Kinematica polytron in 20 volumes of ice-cold TE buffer (10 mM Tris HCl, 1 mM EDTA, 0.1 mM ascorbic acid, pH 7.4). The homogenate was filtered under pressure through muslin and the filtrate was centrifuged at 1,000 g for 10 minutes. The supernatant was centrifuged again at 10,000 g for 12 minutes at 4° C. The second supernatant was centrifuged at 30,000 g for 15 minutes at 4° C., and the final pellet was resuspended in the assay buffer (75 mM Tris HCl, 25 mM MgCl2, pH 7.4). Protein content was determined by Bradford's method.
[^3H]-prazosin, KMUP-1 and membranes (200-300 μg) were incubated for 60 minutes at 25° C. with or without the addition of nonspecific binding agents, in a 75 mM Tris HCl buffer with 25 mM MgCl2, making a final volume of 500 μL. In this experiment, non-specific binding was defined by use of 10 μM phentolamine. […] Membrane-bound radioligand trapped in the filters was counted in a Beckman LS6500 scintillation system (Fullerton, Calif.) with an efficiency of 45%. In each experiment, nonspecifically bound radioligand agents were measured by incubating membrane protein. […]

Consider `Cn1c(=O)c2c(ncn2CCN2CCN(c3ccccc3Cl)CC2)n(C)c1=O` [KMUP-1, 7-[2-[4-(2-Chlorobenzene)piperazinyl]ethyl]-1,3-dimethyl xanthine], for which the Ki is 115 nM.
